Laboratory results: patent US20240335385A1, “IONIZABLE AMINE LIPIDS AND LIPID NANOPARTICLES” (Beam Therapeutics Inc., priority 2021, published 2024)

What was measured:
[1] = LNP hydrodynamic diameter and polydispersity index by dynamic light scattering (DLS); format: physicochemical; conditions: LNP of 47.5% Ionizable Lipid:40% cholesterol:2.5% PEG-2000 DMG:10% DPSC, N/P ratio 4-8
Protocol: (§1) LNPs were prepared with 47.5% Ionizable Lipid (e.g., a compound provided herein):40% cholesterol:2.5% PEG-2000 DMG:10% DPSC and an N/P ratio range of 4-8. LNPs were formed by microfluidic mixing of the lipid and NA solutions using a Precision Nanosystems NanoAssemblr Spark or Benchtop series Instruments, according to the manufacturer's protocol. A ratio of aqueous to organic solvent of approximately 2:1 or 3:1 was maintained during mixing using differential flow rates. After mixing, LNPs were collected, diluted in phosphate buffer saline (PBS) or Tris-buffered saline (TBS) (approximately 1:1 v/v). Further buffer exchange was conducted using dialysis in PBS or TBS at 4° C. for 4 to 24 hours against a 20 kDa filter. After this initial dialysis, each individual LNP preparation was characterized via dynamic light scattering (DLS) to measure the size (e.g., diameter) and polydispersity. LNPs falling within specific diameter and polydispersity ranges were pooled, and further dialyzed against PBS or TBS at 4° C. for 1 to 4 hours against a 100 kDa dialysis cassette. After the second dialysis, LNPs were sterile filtered using 0.22 μm filter and stored at 4° C. for further use.
LNP hydrodynamic diameter and polydispersity index (PDI) were measured using high throughput dynamic light scattering (DLS) (Stunner, Unchained Labs). LNPs were diluted 1×TBS or PBS to an appropriate concentration and analyzed.

[2] = RNA encapsulation efficiency of LNPs by Ribogreen assay; format: physicochemical; conditions: LNP of 47.5% Ionizable Lipid:40% cholesterol:2.5% PEG-2000 DMG:10% DPSC, N/P ratio 4-8
Protocol: as §1
RNA concentration and encapsulation efficiency were determined by Ribogreen assay (BioTek Synergy LX plate reader).

lung = experiment: LNP biodistribution screen, barcode fold above input (FAI) in lung; format: in vivo; conditions: mice, tissues 4 hours post-dose
Protocol: (§2) Male and female mice aged approximately 8-12 weeks were used for studies described by the present Example. Each mouse was temporarily restrained and pooled LNP was administered IV via tail vein injection in up to five animals per experiment. Age-matched mice was also used to administer vehicle (1×TBS) via tail vein injection in up to three animals per experiment. Additional routes of administration can also be conducted including intracerebral ventricular (ICV), intracisterna manga (ICM), intrathecal (IT), intramuscular (IM), nebulization, intranasal (IN), subcutaneous (SC), intraarticular, and intradermal (ID). At 4 hours post-dose, tissues including liver, spleen, bone marrow, testes, gastrocnemius, quadricep, lung, heart, kidney, and pancreas may be collected for analysis.
(§3) Liver, kidney, lung, and muscle (e.g. skeletal and cardiac) tissues may be mechanically, and then enzymatically digested using a mixture of proteinases, then passed through a 70 μm filter to generate single cell suspensions. Spleen tissues were mechanically digested to generate single cell suspensions. Tissues were treated with ACK buffer to lyse red blood cells, and then stained with fluorescently-labeled antibodies for flow cytometry and fluorescence-activated cell sorting (FACS). Commercially available antibodies were used in the present example. Using a BD FACSMelody (Becton Dickinson), samples were acquired via flow cytometry to generate gates prior to sorting. In general, the gating structure was size→singlet cells→live cells→cells of interest. T cells were defined as CD45+CD3+, monocytes are defined as CD45+CD11b+, and B cells are defined as CD45+CD19+. Endothelial cells were defined as CD31+, monocytes and Kupffer cells as CD45+CD11b+ and hepatocytes and myocytes were defined as CD31−/CD45− in the liver and muscle, respectively. Tissues from vehicle-dosed mice were used to set the gates for sorting.
(§4) RNA from tissues were extracted using the Reliaprep RNA extraction kit, and libraries were prepared using the RNAseq kit, and sequenced on either a MiSeq or NextSeq500.
(§5) To screen for preferential LNP delivery to a target tissues, the relative abundance of each barcode in one or more target tissues was measured and compared to the relative abundance of each barcode to its corresponding relative input abundance to determine fold above input (FAI) for each barcode. If the FAI of a barcode in a target tissue is above a threshold or above the FAI of a different LNP in the same tissue, the LNP can be identified as preferentially delivering to the target tissue.
(§6) The FAI is the normalized relative abundance of a barcode in a selected sample as compared to its frequency in the input. The FAI of a barcode indicates how a LNP's abundance changes relative to the rest of the LNP pool. The FAI value of the barcode was calculated by normalizing the relative abundance in the barcode sequence counts in the isolated samples to its relative abundance in the administration input. […] The FAI then indicates the performance of an LNP relative to the input LNP composition.
(§7) Each table describes data obtained from one screening experiment.

spleen = experiment: LNP biodistribution screen, barcode fold above input (FAI) in spleen; format: in vivo; conditions: mice, tissues 4 hours post-dose
Protocol: as §2, §3, §4, §5, §6, §7

liver = experiment: LNP biodistribution screen, barcode fold above input (FAI) in liver; format: in vivo; conditions: mice, tissues 4 hours post-dose
Protocol: as §2
Liver, kidney, lung, and muscle (e.g. skeletal and cardiac) tissues may be mechanically, and then enzymatically digested using a mixture of proteinases, then passed through a 70 μm filter to generate single cell suspensions. Spleen tissues were mechanically digested to generate single cell suspensions. Tissues were treated with ACK buffer to lyse red blood cells, and then stained with fluorescently-labeled antibodies for flow cytometry and fluorescence-activated cell sorting (FACS). Commercially available antibodies were used in the present example. Using a BD FACSMelody (Becton Dickinson), samples were acquired via flow cytometry to generate gates prior to sorting. […]
To screen for preferential LNP delivery to a target tissues, the relative abundance of each barcode in one or more target tissues was measured and compared to the relative abundance of each barcode to its corresponding relative input abundance to determine fold above input (FAI) for each barcode. […]
The FAI is the normalized relative abundance of a barcode in a selected sample as compared to its frequency in the input. […] The FAI value of the barcode was calculated by normalizing the relative abundance in the barcode sequence counts in the isolated samples to its relative abundance in the administration input. […]

[3] = screening experiment of Table 3, pooled LNP IV tail vein
[4] = screening experiment of Table 5, pooled LNP IV tail vein
[5] = screening experiment of Table 4, pooled LNP IV tail vein

| Mean Diameter (nm) [1] [nm] | Mean PDI [1] | Mean Encapsulation Efficiency (%) [2] [%] | Compound | also measured |
| --- | --- | --- | --- | --- |
| 84.3 | 0.18 | 87.2 | CCCCC/C=C\C/C=C\CCCCCCCC(=O)OCCC(CCOC(=O)CCC(OCCCCCCCC)OCCCCCCCC)OC(=O)OCCCN(C)C (stereo not shown) [Example 7-14, 5-((4,4-bis(octyloxy)butanoyl)oxy)-3-(((3-(dimethylamino)propoxy)carbonyl)oxy)pentyl (9Z,12Z)-octadeca-9,12-dienoate] | – |
| 80.8 | 0.16 | 87.0 | CCCCC/C=C\C/C=C\CCCCCCCC(=O)OCCC(CCOC(=O)CCC(OCCCCCCCC)OCCCCCCCC)OC(=O)CCCN1CCCC1 (stereo not shown) [Example 7-15, 5-((4,4-bis(octyloxy)butanoyl)oxy)-3-((4-(pyrrolidin-1-yl)butanoyl)oxy)pentyl (9Z,12Z)-octadeca-9,12-dienoate] | – |
| 80.0 | 0.16 | 72.6 | CCCCCCCCOC(CCC(=O)OCCC(CCOC(=O)CCC(OCCCCCCCC)OCCCCCCCC)OC(=O)OCC1CCCN(CC)C1)OCCCCCCCC (stereo not shown) [Example 7-16, 3-((((1-ethylpiperidin-3-yl)methoxy)carbonyl)oxy)pentane-1,5-diyl bis(4,4-bis(octyloxy)butanoate)] | – |
| 76.7 | 0.16 | 90.0 | CCCCCCCCOC(CCC(=O)OCCC(CCOC(=O)CCC(OCCCCCCCC)OCCCCCCCC)OC(=O)OCCCN(C)CC)OCCCCCCCC [Example 7-18, 3-(((3-(ethyl(methyl)amino)propoxy)carbonyl)oxy)pentane-1,5-diyl bis(4,4-bis(octyloxy)butanoate)] | – |
| 94.4 | 0.12 | 85.1 | CC/C=C\CCCCOC(CCC(=O)OCCCCC(CCCCOC(=O)CCC(OCCCC/C=C\CC)OCCCC/C=C\CC)OC(=O)OCC1CCCN(CC)C1)OCCCC/C=C\CC (stereo not shown) [Example 7-34, 5-((((1-ethylpiperidin-3-yl)methoxy)carbonyl)oxy)nonane-1,9-diyl bis(4,4-bis(((Z)-oct-5-en-1-yl)oxy)butanoate)] | – |

The next lines start with the compound.

| Compound | Mean Diameter (nm) [1] [nm] | Mean PDI [1] | Mean Encapsulation Efficiency (%) [2] [%] | also measured |
| --- | --- | --- | --- | --- |
| 5-((4,4-bis(((Z)-oct-5-en-1-yl)oxy)butanoyl)oxy)-3-((4-(pyrrolidin-1-yl)butanoyl)oxy)pentyl (9Z,12Z)-octadeca-9,12-dienoate [Example 7-5] | 93.1 | 0.13 | 86.8 | FAI (Lung) (lung; [3]): 1.30; FAI (Lung) (lung; [4]): 0.83; FAI (Spleen) (spleen; [3]): 1.29; FAI (Spleen) (spleen; [4]): 1.33; FAI (Liver) (liver; [3]): 2.28 |
| CC/C=C\CCCCOC(CCC(=O)OCCC(CCOC(=O)CCCCCCC/C=C\C/C=C\CCCCC)OC(=O)OCCCN(CC)CC)OCCCC/C=C\CC (stereo not shown) [Example 7-2, 5-((4,4-bis(((Z)-oct-5-en-1-yl)oxy)butanoyl)oxy)-3-(((3-(diethylamino)propoxy)carbonyl)oxy)pentyl (9Z,12Z)-octadeca-9,12-dienoate] | 96.4 | 0.12 | 87.2 | – |
| CC/C=C\CCCCOC(CCC(=O)OCCC(CCOC(=O)CCCCCCC/C=C\C/C=C\CCCCC)OC(=O)OCCCN(C)CC)OCCCC/C=C\CC (stereo not shown) [Example 7-3, 5-((4,4-bis(((Z)-oct-5-en-1-yl)oxy)butanoyl)oxy)-3-(((3-(ethyl(methyl)amino)propoxy)carbonyl)oxy)pentyl (9Z,12Z)-octadeca-9,12-dienoate] | 91.0 | 0.13 | 86.7 | – |
| CC/C=C\CCCCOC(CCC(=O)OCCC(CCOC(=O)CCCCCCC/C=C\C/C=C\CCCCC)OC(=O)OCCCN(C)C)OCCCC/C=C\CC (stereo not shown) [Example 7-4, 5-((4,4-bis(((Z)-oct-5-en-1-yl)oxy)butanoyl)oxy)-3-(((3-(dimethylamino)propoxy)carbonyl)oxy)pentyl (9Z,12Z)-octadeca-9,12-dienoate] | 88.8 | 0.13 | 86.3 | – |
| CC/C=C\CCCCOC(CCC(=O)OCCC(CCOC(=O)CCC(OCCCC/C=C\CC)OCCCC/C=C\CC)OC(=O)OCCCN(CC)CC)OCCCC/C=C\CC [Example 7-7, 3-(((3-(diethylamino)propoxy)carbonyl)oxy)pentane-1,5-diyl bis(4,4-bis(((Z)-oct-5-en-1-yl)oxy)butanoate)] | 99.7 | 0.17 | 91.3 | – |
| CC/C=C\CCCCOC(CCC(=O)OCCC(CCOC(=O)CCC(OCCCC/C=C\CC)OCCCC/C=C\CC)OC(=O)OCCCN(C)CC)OCCCC/C=C\CC [Example 7-8, 3-(((3-(ethyl(methyl)amino)propoxy)carbonyl)oxy)pentane-1,5-diyl bis(4,4-bis(((Z)-oct-5-en-1-yl)oxy)butanoate)] | 110.4 | 0.09 | 89.9 | – |
| CC/C=C\CCCCOC(CCC(=O)OCCC(CCOC(=O)CCC(OCCCC/C=C\CC)OCCCC/C=C\CC)OC(=O)OCCCN(C)C)OCCCC/C=C\CC [Example 7-9, 3-(((3-(dimethylamino)propoxy)carbonyl)oxy)pentane-1,5-diyl bis(4,4-bis(((Z)-oct-5-en-1-yl)oxy)butanoate)] | 92.9 | 0.13 | 89.0 | – |
| CCCCC/C=C\C/C=C\CCCCCCCC(=O)OCCC(CCOC(=O)CCC(OCCCCCCCC)OCCCCCCCC)OC(=O)OCC1CCCN(CC)C1 (stereo not shown) [Example 7-11, 5-((4,4-bis(octyloxy)butanoyl)oxy)-3-((((1-ethylpiperidin-3-yl)methoxy)carbonyl)oxy)pentyl (9Z,12Z)-octadeca-9,12-dienoate] | 76.5 | 0.13 | 86.3 | – |
| CCCCC/C=C\C/C=C\CCCCCCCC(=O)OCCC(CCOC(=O)CCC(OCCCCCCCC)OCCCCCCCC)OC(=O)OCCCN(CC)CC (stereo not shown) [Example 7-12, 5-((4,4-bis(octyloxy)butanoyl)oxy)-3-(((3-(diethylamino)propoxy)carbonyl)oxy)pentyl (9Z,12Z)-octadeca-9,12-dienoate] | 85.0 | 0.16 | 86.5 | – |
| CCCCC/C=C\C/C=C\CCCCCCCC(=O)OCCC(CCOC(=O)CCC(OCCCCCCCC)OCCCCCCCC)OC(=O)OCCCN(C)CC (stereo not shown) [Example 7-13, 5-((4,4-bis(octyloxy)butanoyl)oxy)-3-(((3-(ethyl(methyl)amino)propoxy)carbonyl)oxy)pentyl (9Z,12Z)-octadeca-9,12-dienoate] | 86.0 | 0.15 | 86.1 | – |
| CCCCC/C=C\C/C=C\CCCCCCCCC(CCCCCCCC/C=C\C/C=C\CCCCC)OC(=O)CCCN(C)C [MC3, (6Z,9Z,28Z,31Z)-heptatriaconta-6,9,28,31-tetraen-19-yl 4-(dimethylamino) butanoate] | – | – | – | FAI (Lung) (lung; [3]): 1.09; FAI (Lung) (lung; [5]): 0.65; FAI (Lung) (lung; [4]): 0.50; FAI (Spleen) (spleen; [3]): 1.32; FAI (Spleen) (spleen; [5]): 0.45; FAI (Spleen) (spleen; [4]): 0.39; FAI (Liver) (liver; [3]): 0.80; FAI (Liver) (liver; [5]): 0.31 |
